Measured values: article PMC11224109, “Synthesis and preclinical evaluation of novel ^18F-vancomycin-based tracers for the detection of bacterial infections using positron emission tomography” (European Journal of Nuclear Medicine and Molecular Imaging, 2024)
Like-named read-outs stand apart in the source and are kept apart here.

Experiments:
[1] = test system: S. epidermidis ATCC 35,984; conditions: ATCC 35, 17 h
Procedure: From a single colony an overnight culture was inoculated in Mueller Hinton Broth (MHB) and incubated overnight. On the day of the experiment, a fresh culture was started in 10 mL of MHB until exponential phase was reached. From this, the culture was diluted to an OD600 of 0.01 for the MIC experiment. […] Growth was recorded using a BioTeK Synergy2 microplate spectrophotometer (Agilent, Santa Clara, United States).

E. coli [2] = assay: In vitro tracer binding to E. coli; set-up: species or system Escherichia coli; conditions: clinical isolate, culture OD600 about 3.0, 37 °C, sampled at 0, 15 and 30 min, washed twice, gamma counter
Procedure: (§1) Single colonies of clinical S. aureus and E. coli isolates were used to inoculate TSB and incubated overnight. From the overnight cultures, fresh cultures were started and grown to an optical density at 600 nm (OD600) of approximately 3.0. Both strains were incubated with tracer (3.5 MBq in 1 mL 0.9% saline) in a water bath at 37 °C. The final tracer concentration was 120 kBq ± 28 (38.6 pg ± 9.1 and 0.5 pg ± 0.1 of [^18F]BODIPY-FL-vancomycin and [^18F]PQ-VE1-vancomycin, respectively) per mL culture. At fixed time intervals (0, 15 and 30 min), aliquots were collected (2.0 mL in a 2 mL Eppendorf tube) and washed twice with sterile PBS (1.0 mL per washing step). In each washing step, the bacteria were pelleted by centrifugation (10.000 rpm, 60 s) and resuspended in fresh PBS. […] Measurements were corrected for background and decay. Results are reported as counts per s (Bq). To correlate bound tracer with the number of bacteria in a sample, the bacterial suspensions (2 ×) were plated and CFUs were counted.

S. aureus [3] = assay: In vitro tracer binding to S. aureus; set-up: species or system Staphylococcus aureus; conditions: clinical isolate, culture OD600 about 3.0, 37 °C, sampled at 0, 15 and 30 min, washed twice, gamma counter
Procedure: as §1

[4] = test system: S. aureus USA300 MRSA strain; assay: Competition with unlabeled vancomycin; assay type: binding, Staphylococcus aureus; conditions: for Tracer binding to S. aureus at a concentration of 1024 µg/mL vancomycin / Tracer binding to S. aureus at vancomycin concentrations below 2 µg/mL / Tracer binding to S. aureus at vancomycin concentrations of up to 64 µg/mL: S. aureus USA300, OD600 0.2, 125 kBq tracer per mL, 30 min incubation, gamma counter
Procedure: [^18F]FB-vancomycin was excluded due to its limited in vitro and in vivo stability. On the day of the experiment, a fresh culture was started in 10 mL of TSB and grown to an OD600 of 2.0. […] Bacteria were added to the dilutions to obtain a final OD600 of 0.2 and the vial was briefly vortexed to ensure proper mixing. Tracer was added (125 kBq per mL, 40.3 pg and 0.5 pg of [^18F]BODIPY-FL-vancomycin and [^18F]PQ-VE1-vancomycin, respectively) and the vial was vortexed again. After 30 min incubation, aliquots were collected in 2 mL Eppendorf tubes and washed twice with PBS by centrifugation. […] Measurements were corrected for background and decay. Results are reported as 10^3 counts per s (kBq).

S. aureus [5] = conditions: previously reported; cited from earlier work
Procedure: (§2) In vitro binding of [^18F]BODIPY-FL-vancomycin and [^18F]FB-vancomycin to the Gram-positive bacterium S. aureus and the Gram-negative bacterium E. coli was assayed by incubating the bacteria with either one of the two tracers and collecting samples at fixed time intervals to determine the radioactivity associated with the bacteria.

E. coli [6] = conditions: previously reported; cited from earlier work
Procedure: as §2

[7] = up to 120 min, previously shown; cited from earlier work
Procedure: Tracer stability was assessed in both PBS and human plasma. […] In contrast, > 90% of the [^18F]BODIPY-FL-vancomycin remained stable in PBS and plasma for up to 120 min, as was also previously shown for [^18F]PQ-VE1-vancomycin [44].

Structure (SMILES) | MIC [1] [µg/mL] | Binding to E. coli (E. coli [2]) | Binding to S. aureus (S. aureus [3]) | Vancomycin concentrations at which tracer binding is outcompeted, compared with [^18F]PQ-VE1-vancomycin ([4]; S. aureus USA300, 30 min incubation) | Tracer binding to S. aureus at a concentration of 1024 µg/mL vancomycin [4] | Tracer binding to S. aureus at vancomycin concentrations below 2 µg/mL [4] | Tracer binding to S. aureus at vancomycin concentrations of up to 64 µg/mL [4] | Binding to S. aureus (S. aureus [5]) | Binding to E. coli (E. coli [6]) | Tracer remaining stable in PBS [7] | Tracer remaining stable in human plasma [7]
Cc1cc(C)n2c1C=C1C=CC(CCC(=O)N(C)[C@H](CC(C)C)C(=O)N[C@H]3C(=O)N[C@@H](CC(N)=O)C(=O)N[C@H]4C(=O)N[C@H]5C(=O)N[C@H](C(=O)N[C@H](C(=O)O)c6cc(O)cc(O)c6-c6cc5ccc6O)[C@H](O)c5ccc(c(Cl)c5)Oc5cc4cc(c5O[C@@H]4O[C@H](CO)[C@@H](O)[C@H](O)[C@H]4O[C@H]4C[C@](C)(N)[C@H](O)[C@H](C)O4)Oc4ccc(cc4Cl)[C@H]3O)=[N+]1[B-]2(F)F [[^18F]BODIPY-FL-vancomycin] | 16 | not to E. coli | rapid and selective binding to S. aureus | slightly lower | reduced to baseline | not significantly inhibited | signal over background was still detected |  |  |  | 
CC(C)C[C@H](C(=O)N[C@H]1C(=O)N[C@@H](CC(N)=O)C(=O)N[C@H]2C(=O)N[C@H]3C(=O)N[C@H](C(=O)N[C@H](C(=O)O)c4cc(O)cc(O)c4-c4cc3ccc4O)[C@H](O)c3ccc(c(Cl)c3)Oc3cc2cc(c3O[C@@H]2O[C@H](CO)[C@@H](O)[C@H](O)[C@H]2O[C@H]2C[C@](C)(N)[C@H](O)[C@H](C)O2)Oc2ccc(cc2Cl)[C@H]1O)N(C)C(=O)c1ccc(F)cc1 [[^18F]FB-vancomycin] |  | no bacterial binding was observed | no bacterial binding was observed |  |  |  |  |  |  |  | 
CN[C@H](CC(C)C)C(=O)N[C@H]1C(=O)N[C@@H](CC(N)=O)C(=O)N[C@H]2C(=O)N[C@H]3C(=O)N[C@H](C(=O)N[C@H](C(=O)O)c4cc(O)cc(O)c4-c4cc3ccc4O)[C@H](O)c3ccc(c(Cl)c3)Oc3cc2cc(c3O[C@@H]2O[C@H](CO)[C@@H](O)[C@H](O)[C@H]2O[C@H]2C[C@](C)(NC(=O)c3ccc4c5c(c6ccccc6c4c3)OCC(OCCF)O5)[C@H](O)[C@H](C)O2)Oc2ccc(cc2Cl)[C@H]1O (stereo partly shown) [[^18F]PQ-VE1-vancomycin] |  |  |  |  | reduced to baseline | not significantly inhibited | signal over background was still detected | rapid and selective binding to S. aureus | not to E. coli | over 90% | over 90%
